Experimental data as given in patent US10294202B2, “Pyrrolidinones as herbicides” (FMC Corporation, priority 2013, dated 2019).

What was measured:
foxtail, green = test: Test E preemergence herbicide test; format: in vivo, Setaria viridis; parameters: key: 0 = no effect, 100 = complete control
Text: (§1) Seeds of plant species selected from corn (Zea mays), soybean (Glycine max), velvetleaf (Abutilon theophrasti), lambsquarters (Chenopodium album), wild poinsettia (Euphorbia heterophylla), pigweed, palmer (palmer pigweed, Amaranthus palmeri), waterhemp (common waterhemp, Amaranthus rudis), surinam grass (Brachiaria decumbens), crabgrass, large (large crabgrass, Digitaria sanguinalis), crabgrass, Brazil (Brazilian crabgrass, Digitaria horizontalis), panicum, fall (fall panicum, Panicum dichotomiflorum), foxtail, giant (giant foxtail, Setaria faberii), foxtail, green (green foxtail, Setaria viridis), goosegrass (Eleusine indica), johnsongrass (Sorghum halepense), ragweed (common ragweed, Ambrosia elatior), barnyardgrass (Echinochloa crus-galli), sandbur (southern sandbur, Cenchrus echinatus), arrowleaf […] rhombifolia), ryegrass, Italian (Italian ryegrass, Lolium multiflorum), dayflower, VA (Virginia dayflower, Commelina virginica), field bindweed (Convolvulus arvensis), morningglory (Ipomoea coccinea), nightshade (eastern black nightshade, Solanum ptycanthum), kochia (Kochia scoparia), nutsedge, yellow (yellow nutsedge, Cyperus esculentus), cocklebur (common cocklebur, Xanthium strumarium), smartweed (ladysthumb smartweed, Polygonum Persicaria) and beggarticks (hairy beggarticks, Bidens pilosa), were planted into a silt loam soil and treated preemergence with test chemicals formulated in a non-phytotoxic solvent mixture which included a surfactant. Treated plants and controls were maintained in a greenhouse for 21 days, after which time all species were compared to controls and visually evaluated. Plant response ratings, summarized in Table E, are based on a scale of 0 to 100 where 0 is no effect and 100 is complete control. A dash (-) response means no test result.

barnyardgrass = test: Test E preemergence herbicide test; format: in vivo, Echinochloa crus-galli; parameters: key: 0 = no effect, 100 = complete control
Text: as §1

panicum, fall = test: Test E preemergence herbicide test; format: in vivo, Panicum dichotomiflorum; parameters: key: 0 = no effect, 100 = complete control
Text: as §1

canarygrass = test: Test D pre-/postemergence herbicide test; format: in vivo, Phalaris minor; details: for Plant response rating: Canarygrass, scale 0 to 100; for Plant response rating, Canarygrass: scale 0 to 100 (0 no effect, 100 complete control)
Text: (§2) Seeds of plant species selected from bluegrass (annual bluegrass, Poa annua), blackgrass (Alopecurus myosuroides), canarygrass (littleseed canarygrass, Phalaris minor), chickweed (common chickweed, Stellaria media), galium (catchweed bedstraw, Galium aparine), bromegrass, downy (downy bromegrass, Bromus tectorum), field poppy (Papaver rhoeas), field violet (Viola arvensis), foxtail, green (green foxtail, Setaria viridis), deadnettle (henbit deadnettle, Lamium amplexicaule), ryegrass, Italian (Italian ryegrass, Lolium multiflorum), kochia (Kochia scoparia), lambsquarters (Chenopodium album), oilseed rape (Brassica napus), pigweed (Amaranthus retroflexus), chamomile (scentless chamomile, Matricaria inodora), Russian thistle (Salsola kali), speedwell (bird's-eye speedwell, Veronica persica), barley, spring (spring barley, Hordeum vulgare), wheat, spring (spring wheat, Triticum aestivum), buckwheat, wild (wild buckwheat, Polygonum convolvulus), mustard, wild (wild mustard, Sinapis arvensis), oat, wild (wild oat, Avena fatua), radish, wild (wild radish, Raphanus raphanistrum), […]), barley, winter (winter barley, Hordeum vulgare), and wheat, winter (winter wheat, Triticum aestivum) were planted into a silt loam soil and treated preemergence with test chemicals formulated in a non-phytotoxic solvent mixture which included a surfactant. At the same time, these species were planted in pots containing Redi-Earth® planting medium (Scotts Company, 14111 Scottslawn Road, Marysville, Ohio 43041) comprising spaghnum peat moss, vermiculite, wetting agent and starter nutrients and treated with postemergence applications of the test chemicals formulated in the same manner. Plants ranged in height from 2 to 18 cm (1- to 4-leaf stage). Treated plants and controls were maintained in a controlled growth environment for 7 to 21 days after which time all species were compared to controls and visually evaluated. Plant response ratings, summarized in Table D, are based on a scale of 0 to 100 where 0 is no effect and 100 is complete control. A dash (-) response means no test result.

mustard, wild = test: Test D pre-/postemergence herbicide test; format: in vivo, Sinapis arvensis; details: for Plant response rating: Mustard, Wild, scale 0 to 100; for Plant response rating, Mustard, Wild: scale 0 to 100 (0 no effect, 100 complete control)
Text: as §2

rice, transplanted = test: Test F flood (paddy) test; format: in vivo, Oryza sativa cv. Japonica—M202; details: 21 d, scale 0-100
Outline: (§3)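 Visual injury ratings (0 no effect to 100 complete control) were taken 21 d after treatment against untreated controls. Compounds went directly into paddy water held 3 cm above soil, applied at the 2.0–2.5-leaf stage in sterilized Tama silt loam under a 30/27 °C, 16-h greenhouse regime.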

watergrass, late = test: Test F flood (paddy) test; format: in vivo, Echinochloa oryzicola; details: 21 d, scale 0-100
Outline: as §3

| Compound | Plant response rating, Foxtail, Green (foxtail, green; 16 g ai/ha) | Plant response rating, Foxtail, Green (foxtail, green; 31 g ai/ha) | Plant response rating, Foxtail, Green (foxtail, green; 62 g ai/ha) | Plant response rating, Foxtail, Green (foxtail, green; 125 g ai/ha) | Plant response rating, Foxtail, Green (foxtail, green; 250 g ai/ha) | Plant response rating, Barnyardgrass (barnyardgrass; 16 g ai/ha) | Plant response rating, Barnyardgrass (barnyardgrass; 31 g ai/ha) | Plant response rating, Barnyardgrass (barnyardgrass; 62 g ai/ha) | Plant response rating, Barnyardgrass (barnyardgrass; 125 g ai/ha) | Plant response rating, Barnyardgrass (barnyardgrass; 250 g ai/ha) | Plant response rating, Panicum, Fall (panicum, fall; 16 g ai/ha) | Plant response rating, Panicum, Fall (panicum, fall; 31 g ai/ha) | Plant response rating, Panicum, Fall (panicum, fall; 62 g ai/ha) | Plant response rating, Panicum, Fall (panicum, fall; 250 g ai/ha) | Plant response rating (canarygrass; Postemergence, 31 g ai/ha) | Plant response rating (canarygrass; Postemergence, 62 g ai/ha) | Plant response rating (canarygrass; Postemergence, 125 g ai/ha) | Plant response rating (canarygrass; Postemergence, 250 g ai/ha) | Plant response rating, Panicum, Fall (panicum, fall; 125 g ai/ha) | Plant response rating (mustard, wild; Postemergence, 31 g ai/ha) | other results |
| --- | --- | --- | --- | --- | --- | --- | --- | --- | --- | --- | --- | --- | --- | --- | --- | --- | --- | --- | --- | --- | --- |
| O=C1NCC(c2ccc(Cl)c(Cl)c2)C1C(=O)Nc1ccccc1F (racemic) [Compound 14] | 0 | 0 | 0 | 10 | 70 | 0 | 0 | 0 | 40 | 75 | 0 | 0 | 0 | 40 |  |  |  |  |  |  |  |
| O=C1NCC(c2ccc(C(F)(F)F)cc2)C1C(=O)Nc1cccc(F)c1F (racemic) [Compound 202] |  | 10 | 75 | 98 | 98 |  | 40 | 80 | 85 | 98 |  | 0 | 0 | 85 | 0 | 0 | 0 | 0 | 50 | 85 | Plant response rating, Canarygrass (canarygrass; Preemergence, 62 g ai/ha): 10; Plant response rating, Canarygrass (canarygrass; Preemergence, 31 g ai/ha): 5; Plant response rating (canarygrass; Preemergence, 125 g ai/ha): 60; Plant response rating (canarygrass; Preemergence, 250 g ai/ha): 75; Plant response rating (mustard, wild; Postemergence, 62 g ai/ha): 80; Plant response rating (mustard, wild; Postemergence, 125 g ai/ha): 80; Plant response rating (mustard, wild; Postemergence, 250 g ai/ha): 85; Plant response rating, Mustard, Wild (mustard, wild; Preemergence, 62 g ai/ha): 0; Plant response rating, Mustard, Wild (mustard, wild; Preemergence, 31 g ai/ha): 0; Plant response rating (mustard, wild; Preemergence, 125 g ai/ha): 20; Plant response rating (mustard, wild; Preemergence, 250 g ai/ha): 75 |
| O=C1NCC(c2ccc(OC(F)F)cc2)C1C(=O)Nc1cccc(F)c1F (racemic) [Compound 350] |  | 20 | 35 | 80 | 85 |  | 15 | 40 | 60 | 98 |  | 0 | 0 | 0 |  |  |  |  | 0 |  |  |
| O=C1NCC(c2ccc(F)c(F)c2)C1C(=O)Nc1cccc(F)c1F (stereo not drawn) [Compound 17, N-(2,3-difluorophenyl)-4-(3,4-difluorophenyl)-2-oxo-3-pyrrolidinecarboxamide] | 0 | 25 | 40 | 70 | 95 | 0 | 0 | 80 | 95 | 98 | 0 | 0 | 0 | 0 | 0 | 0 | 0 | 0 | 0 | 0 | Plant response rating, Rice, Transplanted (rice, transplanted; 125 g ai/ha): 10; Plant response rating, Rice, Transplanted (rice, transplanted; 250 g ai/ha): 10; Plant response rating, Rice, Transplanted (rice, transplanted; 500 g ai/ha): 10; Plant response rating, Rice, Transplanted (rice, transplanted; 1000 g ai/ha): 10; Plant response rating, Rice, Transplanted (rice, transplanted; 2000 g ai/ha): 10; Plant response rating, Watergrass, Late (watergrass, late; 125 g ai/ha): 80; Plant response rating, Watergrass, Late (watergrass, late; 250 g ai/ha): 85; Plant response rating, Watergrass, Late (watergrass, late; 500 g ai/ha): 90; Plant response rating, Watergrass, Late (watergrass, late; 1000 g ai/ha): 90; Plant response rating, Watergrass, Late (watergrass, late; 2000 g ai/ha): 95; Plant response rating (canarygrass; Postemergence, 16 g ai/ha): 0; Plant response rating (mustard, wild; Postemergence, 16 g ai/ha): 0; Plant response rating (mustard, wild; Postemergence, 62 g ai/ha): 10; Plant response rating (mustard, wild; Postemergence, 125 g ai/ha): 30; Plant response rating (mustard, wild; Postemergence, 250 g ai/ha): 30 |
| O=C1NCC(c2ccc(C(F)(F)F)cc2)C1C(=O)Nc1cccc(F)c1F (stereo not drawn) [Compound 80, N-(2,3-difluorophenyl)-2-oxo-4-[4-(trifluoromethyl)phenyl]-3-pyrrolidinecarboxamide] | 50 | 60 | 70 | 80 | 90 | 0 | 20 | 50 | 75 | 80 | 0 | 0 | 0 | 0 | 0 | 0 | 0 | 0 | 0 | 70 | Plant response rating, Canarygrass (canarygrass; Preemergence, 62 g ai/ha): 0; Plant response rating, Canarygrass (canarygrass; Preemergence, 31 g ai/ha): 0; Plant response rating (canarygrass; Preemergence, 125 g ai/ha): 10; Plant response rating (canarygrass; Preemergence, 250 g ai/ha): 20; Plant response rating (mustard, wild; Postemergence, 62 g ai/ha): 80; Plant response rating (mustard, wild; Postemergence, 125 g ai/ha): 85; Plant response rating (mustard, wild; Postemergence, 250 g ai/ha): 85; Plant response rating, Mustard, Wild (mustard, wild; Preemergence, 62 g ai/ha): 25; Plant response rating, Mustard, Wild (mustard, wild; Preemergence, 31 g ai/ha): 0; Plant response rating (mustard, wild; Preemergence, 125 g ai/ha): 65; Plant response rating (mustard, wild; Preemergence, 250 g ai/ha): 70 |
